The values that follow come from publication PMC4954948, “Functional and modular analyses of diverse endoglucanases from Ruminococcus albus 8, a specialist plant cell wall degrading bacterium” (Scientific Reports, 2016).

Experiment in all cases: isothermal titration calorimetry
Holding throughout (type): binding

The target of test [1] is T1, Ra2535 TM2 (Hominimerdicola alba, UniProt E9SAY7).
T1 construct: gene CUS_8100
The conditions noted are these: 25 °C, 50 mM sodium phosphate, 150 mM NaCl, pH 6.5; single site model; read-out: affinity constant (converted). An excerpt:
isothermal titration calorimetry on Ra2535 TM2 | The affinity constants of Ra2535 TM1 and TM2 for cellopentaose were similar

Test [2] concerns the target T2, Ra1831 TM1 (Hominimerdicola alba, UniProt E9SGH0).
T2 construct: gene CUS_6389; truncation: C-terminal half of Ra1831 with region of unknown function (CBM65-like) plus CBM37, GH5 domain removed
The conditions noted are these: 25 °C, 50 mM sodium phosphate, 150 mM NaCl, pH 6.5; weak, parameters not deducible.

Test [3] has as its target T3, Ra2535 TM1 (Hominimerdicola alba, UniProt E9SAY7).
T3 construct: gene CUS_8100
The conditions noted are these: 25 °C, 50 mM sodium phosphate, 150 mM NaCl, pH 6.5; single site model; read-out: affinity constant (converted). The source says:
isothermal titration calorimetry on Ra2535 TM1 | The affinity constants of Ra2535 TM1 and TM2 for cellopentaose were similar

T1 sequence (E9SAY7 entry or part of it): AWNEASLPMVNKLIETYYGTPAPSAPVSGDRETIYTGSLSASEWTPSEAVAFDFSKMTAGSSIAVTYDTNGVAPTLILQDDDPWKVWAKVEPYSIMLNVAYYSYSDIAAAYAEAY
T2 sequence (E9SGH0 entry or part of it): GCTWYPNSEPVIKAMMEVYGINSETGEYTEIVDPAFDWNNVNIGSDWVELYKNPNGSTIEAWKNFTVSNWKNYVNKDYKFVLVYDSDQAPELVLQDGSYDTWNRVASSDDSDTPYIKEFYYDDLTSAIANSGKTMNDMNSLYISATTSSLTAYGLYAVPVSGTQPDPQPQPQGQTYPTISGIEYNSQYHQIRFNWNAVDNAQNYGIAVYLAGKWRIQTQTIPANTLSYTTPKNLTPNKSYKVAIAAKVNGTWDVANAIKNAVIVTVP
T3 sequence (E9SAY7 entry or part of it): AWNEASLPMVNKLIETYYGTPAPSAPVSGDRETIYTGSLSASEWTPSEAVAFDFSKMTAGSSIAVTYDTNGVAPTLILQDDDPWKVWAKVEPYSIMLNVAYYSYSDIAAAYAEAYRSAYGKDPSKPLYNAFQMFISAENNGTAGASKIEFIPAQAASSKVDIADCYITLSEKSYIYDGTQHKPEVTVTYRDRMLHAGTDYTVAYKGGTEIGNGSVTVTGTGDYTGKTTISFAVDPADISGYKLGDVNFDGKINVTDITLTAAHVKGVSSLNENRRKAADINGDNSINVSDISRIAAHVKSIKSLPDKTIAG

As for `OC[C@H]1O[C@@H](O[C@H]2[C@H](O)[C@@H](O)[C@H](O[C@H]3[C@H](O)[C@@H](O)[C@H](O[C@H]4[C@H](O)[C@@H](O)[C@H](O[C@H]5[C@H](O)[C@@H](O)C(O)O[C@@H]5CO)O[C@@H]4CO)O[C@@H]3CO)O[C@@H]2CO)[C@H](O)[C@@H](O)[C@@H]1O` (stereo partly drawn) [cellopentaose], the Kd in test [1] and in test [3] was 5.95 µM in each case. Also, the isothermal titration calorimetry entry in test [2] is listed as “The representative ITC data for Ra1831 TM1 was not very different from that of TM2”.
